Experiment: Capacitance of a black lipid membrane
Assay type: physicochemical
Conditions: Porengröße von 0,8 mm
Excerpt: Das Überspannen von Poren mit einer Lipidschicht ermöglicht nicht nur Einsatz solcher Systeme bei Separations- und Transportvorgängen (Dialyse, Umkehrosmose etc.), sondern auch im Bereich von Piezo- und Pyroelektrik, Mikrokondensatortechnik, nicht-linearer Optik und Biosensorik. Die Kapazität einer stabilen Black-Lipid-Membran aus TEL ist bei einer Porengröße von 0,8 mm 0,744 µF/cm^2.

## 2,3,2',3'-Tetra-O-dibiphytanyl-di-sn-glycerol-1'-β-gulosyl-1-phosphoryl-3"-sn-glycerols [TEL]
  Kapazität einer stabilen Black-Lipid-Membran: 0,744 µF/cm^2

From patent publication EP0883624B1, “TETRAETHER LIPIDS AND LIPOSOMES CONTAINING SAID LIPIDS, AND USE OF THE SAME” (Humatrix AG, priority 1996, dated 1997)
